Test system: 648629-189-R-J1-PDC complex spheroids viability
Assay: Anticancer human tumor 648629-189-R-J1-PDC patient-derived bladder carcinoma cell line growth inhibition [CLK]
Settings: for IC50: curve of first compound; for viability, T/C: stronger effect = lower value
Outline: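 Patient-derived tumor cells grown as complex spheroids with HUVEC endothelial cells and mesenchymal stem cells, treated with drug combinations. Concentrations descend in half-log steps from near clinical Cmax, or from 10 microM if Cmax unknown.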

[1] = second compound 0.0316 µM, first compound 0.0316 µM
[2] = second compound 0.0316 µM, first compound 0.1 µM
[3] = second compound 0.0316 µM, first compound 0.316 µM
[4] = second compound 0.0316 µM, first compound 1 µM
[5] = second compound 0.0316 µM, first compound 3.16 µM
[6] = second compound 0.0316 µM, first compound 10 µM
[7] = second compound 0.1 µM, first compound 0.0316 µM
[8] = second compound 0.1 µM, first compound 0.1 µM
[9] = second compound 0.1 µM, first compound 0.316 µM
[10] = second compound 0.1 µM, first compound 1 µM
[11] = second compound 0.1 µM, first compound 3.16 µM
[12] = second compound 0.1 µM, first compound 10 µM
[13] = second compound 0.316 µM, first compound 0.0316 µM
[14] = second compound 0.316 µM, first compound 0.1 µM
[15] = second compound 0.316 µM, first compound 0.316 µM
[16] = second compound 0.316 µM, first compound 1 µM
[17] = second compound 0.316 µM, first compound 3.16 µM
[18] = second compound 0.316 µM, first compound 10 µM
[19] = second compound 1 µM, first compound 0.0316 µM
[20] = second compound 1 µM, first compound 0.1 µM
[21] = second compound 1 µM, first compound 0.316 µM
[22] = second compound 1 µM, first compound 1 µM
[23] = second compound 1 µM, first compound 3.16 µM
[24] = second compound 1 µM, first compound 10 µM
[25] = second compound 3.16 µM, first compound 0.0316 µM
[26] = second compound 3.16 µM, first compound 0.1 µM
[27] = second compound 3.16 µM, first compound 0.316 µM
[28] = second compound 3.16 µM, first compound 1 µM
[29] = second compound 3.16 µM, first compound 3.16 µM
[30] = second compound 3.16 µM, first compound 10 µM
[31] = second compound 10 µM, first compound 0.0316 µM
[32] = second compound 10 µM, first compound 0.1 µM
[33] = second compound 10 µM, first compound 0.316 µM
[34] = second compound 10 µM, first compound 1 µM
[35] = second compound 10 µM, first compound 3.16 µM
[36] = second compound 10 µM, first compound 10 µM
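For viability, T/C in this document: drug exposure lasted seven days before viability readout; 100% = DMSO vehicle control wells.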

CC(Nc1ccc2c(c1)OCCn1cc(N3C(=O)OCC3C(F)F)nc1-2)C(N)=O (stereo not drawn) + CN1CCN(c2cc(C(=O)Nc3cc4cc(-c5cnn(C)c5)ccc4cn3)ccn2)CC1
IC50 (second compound 0.0316 µM): 8560 nM
IC50 (second compound 0.1 µM): 8740 nM
IC50 (second compound 0.316 µM): < 31.6 nM
IC50 (second compound 1 µM): < 31.6 nM
IC50 (second compound 3.16 µM): < 31.6 nM
IC50 (second compound 10 µM): < 31.6 nM
viability, T/C [1]: 114%
viability, T/C [2]: 111%
viability, T/C [3]: 97.6%
viability, T/C [4]: 84.2%
viability, T/C [5]: 77.2%
viability, T/C [6]: 44.8%
viability, T/C [7]: 105%
viability, T/C [8]: 100%
viability, T/C [9]: 90.2%
viability, T/C [10]: 82.8%
viability, T/C [11]: 68.8%
viability, T/C [12]: 46.8%
viability, T/C [13]: 44.5%
viability, T/C [14]: 44.2%
viability, T/C [15]: 42.5%
viability, T/C [16]: 38.4%
viability, T/C [17]: 30.9%
viability, T/C [18]: 28.1%
viability, T/C [19]: 0.75%
viability, T/C [20]: 0.85%
viability, T/C [21]: 0.93%
viability, T/C [22]: 1.18%
viability, T/C [23]: 0.5%
viability, T/C [24]: 0.59%
viability, T/C [25]: 0.08%
viability, T/C [26]: 0.14%
viability, T/C [27]: 0.16%
viability, T/C [28]: 0.13%
viability, T/C [29]: 1.1%
viability, T/C [30]: 0.14%
viability, T/C [31]: 0.1%
viability, T/C [32]: 0.13%
viability, T/C [33]: 0.17%
viability, T/C [34]: 0.22%
viability, T/C [35]: 0.22%
viability, T/C [36]: 0.2%

Nc1ccccc1NC(=O)c1ccc(CNC(=O)OCc2cccnc2)cc1 + CNC(=O)c1ccc(Nc2nc(OC3CCCC3)c3c(-c4ccc5nc(C)oc5c4)c[nH]c3n2)c(OC)c1
IC50 (second compound 0.0316 µM): 1590 nM
IC50 (second compound 0.1 µM): 1560 nM
IC50 (second compound 0.316 µM): < 31.6 nM
IC50 (second compound 1 µM): < 31.6 nM
IC50 (second compound 3.16 µM): < 31.6 nM
IC50 (second compound 10 µM): < 31.6 nM
viability, T/C [1]: 104%
viability, T/C [2]: 93.5%
viability, T/C [3]: 96.7%
viability, T/C [4]: 63.9%
viability, T/C [5]: 27.1%
viability, T/C [6]: 0.72%
viability, T/C [7]: 86.6%
viability, T/C [8]: 90.8%
viability, T/C [9]: 82.4%
viability, T/C [10]: 65.1%
viability, T/C [11]: 26.2%
viability, T/C [12]: 0.23%
viability, T/C [13]: 30.3%
viability, T/C [14]: 22.9%
viability, T/C [15]: 27.1%
viability, T/C [16]: 27.5%
viability, T/C [17]: 17.8%
viability, T/C [18]: 0.7%
viability, T/C [19]: 17.4%
viability, T/C [20]: 19.8%
viability, T/C [21]: 20.5%
viability, T/C [22]: 18.4%
viability, T/C [23]: 12.6%
viability, T/C [24]: 0.5%
viability, T/C [25]: 18.9%
viability, T/C [26]: 18.3%
viability, T/C [27]: 19.3%
viability, T/C [28]: 18.5%
viability, T/C [29]: 16.4%
viability, T/C [30]: 0.52%
viability, T/C [31]: 21.7%
viability, T/C [32]: 16.4%
viability, T/C [33]: 19.5%
viability, T/C [34]: 23.9%
viability, T/C [35]: 15.6%
viability, T/C [36]: 1.56%

Nc1ccn(C2OC(CO)C(O)C2(F)F)c(=O)n1 (stereo not drawn) + CN1CCN(c2cc(C(=O)Nc3cc4cc(-c5cnn(C)c5)ccc4cn3)ccn2)CC1
IC50 (second compound 0.0316 µM): 52.9 nM
IC50 (second compound 0.1 µM): 49.8 nM
IC50 (second compound 0.316 µM): < 31.6 nM
IC50 (second compound 1 µM): < 31.6 nM
IC50 (second compound 3.16 µM): < 31.6 nM
IC50 (second compound 10 µM): < 31.6 nM
viability, T/C [1]: 65.2%
viability, T/C [2]: 31.1%
viability, T/C [3]: 11.9%
viability, T/C [4]: 5.88%
viability, T/C [5]: 5.69%
viability, T/C [6]: 4.49%
viability, T/C [7]: 67.7%
viability, T/C [8]: 22.8%
viability, T/C [9]: 10.1%
viability, T/C [10]: 5.67%
viability, T/C [11]: 4.53%
viability, T/C [12]: 3.3%
viability, T/C [13]: 32.1%
viability, T/C [14]: 22.7%
viability, T/C [15]: 13%
viability, T/C [16]: 7.45%
viability, T/C [17]: 9.18%
viability, T/C [18]: 5.35%
viability, T/C [19]: 0.19%
viability, T/C [20]: 0.38%
viability, T/C [21]: 1.02%
viability, T/C [22]: 0.31%
viability, T/C [23]: 0.14%
viability, T/C [24]: 1.01%
viability, T/C [25]: 0.09%
viability, T/C [26]: 1.1%
viability, T/C [27]: 0.11%
viability, T/C [28]: 0.09%
viability, T/C [29]: 0.1%
viability, T/C [30]: 0.39%
viability, T/C [31]: 0.12%
viability, T/C [32]: 0.13%
viability, T/C [33]: 0.17%
viability, T/C [34]: 0.17%
viability, T/C [35]: 0.28%
viability, T/C [36]: 0.17%

Nc1ccn(C2OC(CO)C(O)C2(F)F)c(=O)n1 (stereo not drawn) + CNC(=O)c1ccc(Nc2nc(OC3CCCC3)c3c(-c4ccc5nc(C)oc5c4)c[nH]c3n2)c(OC)c1
IC50 (second compound 0.0316 µM): 38.2 nM
IC50 (second compound 0.1 µM): 42.1 nM
IC50 (second compound 0.316 µM): < 31.6 nM
IC50 (second compound 1 µM): < 31.6 nM
IC50 (second compound 3.16 µM): < 31.6 nM
IC50 (second compound 10 µM): < 31.6 nM
viability, T/C [1]: 56.8%
viability, T/C [2]: 16.1%
viability, T/C [3]: 10.6%
viability, T/C [4]: 8.41%
viability, T/C [5]: 8.43%
viability, T/C [6]: 6.82%
viability, T/C [7]: 58.7%
viability, T/C [8]: 23.9%
viability, T/C [9]: 10.1%
viability, T/C [10]: 8.46%
viability, T/C [11]: 7.09%
viability, T/C [12]: 5.88%
viability, T/C [13]: 18.1%
viability, T/C [14]: 14.3%
viability, T/C [15]: 8.69%
viability, T/C [16]: 7.21%
viability, T/C [17]: 7.97%
viability, T/C [18]: 6.5%
viability, T/C [19]: 18.2%
viability, T/C [20]: 13.3%
viability, T/C [21]: 11.8%
viability, T/C [22]: 8.47%
viability, T/C [23]: 9.1%
viability, T/C [24]: 7.07%
viability, T/C [25]: 16.2%
viability, T/C [26]: 14.8%
viability, T/C [27]: 11.2%
viability, T/C [28]: 11.7%
viability, T/C [29]: 11.2%
viability, T/C [30]: 7.1%
viability, T/C [31]: 18.1%
viability, T/C [32]: 18%
viability, T/C [33]: 14.7%
viability, T/C [34]: 10.1%
viability, T/C [35]: 9.44%
viability, T/C [36]: 7.39%

Reference: PubChem BioAssay AID2060602 (Molecular Pharmacology Branch, DTP, NCI, 2025)
